The results in this text go back to patent US20240262806A1, “INHIBITORS OF NLRP3” (PTC THERAPEUTICS, INC., priority 2021, published 2024).

One may read the IC50 as the point on the concentration scale where inhibition reaches its midpoint.

Structures can show the parent of a compound that is named as a salt.

The subject of the first assay is NLRP3 inflammasome. As to the kind of experiment: IL-1β Secretion Assay (NLRP3-dependent IL-1β secretion in PMA-differentiated THP-1 cells, nigericin activation, HTRF). The assay is classed as cell-based. To be noted: Homo sapiens, THP-1, THP-1 cells, 100 ng/mL PMA 24 h, compound 20 h, 2.5 μM Nigericin 3 h; read-out: IC50 IL-1β Inhibition. A digest of the protocol: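 IL-1β release, quantified by HTRF after nigericin activation of the NLRP3 inflammasome, was the read-out. A logistic fit of percent inhibition gave IC50.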
Background: TR-FRET usually uses a lanthanide donor and a delayed reading to cut background.
As to `CN1CCC[C@@H](Nc2nnc(-c3ccc(C(F)(F)F)cc3O)c3c(F)ccn23)C1` [Compound I-393], the IC50 is below 1 nM.
Still for that read-out and setting: with `CN1CCC[C@@H](Nc2nnc(-c3ccc(C(F)(F)F)cc3OC(F)F)c3c(F)ccn23)C1` [Compound I-394] the figure was 1 to 10 nM; with `Oc1cc(C(F)(F)F)cc(F)c1-c1nnc(N[C@@H]2CCCOC2)n2cccc12` [Compound I-395], 10 to 100 nM.
For the molecule `Cc1ccc(-c2nnc(N[C@@H]3CCCN(C)C3)n3nc(C)cc23)c(OC(F)(F)F)c1` [Compound I-396, (R)-2-Methyl-4-(4-methyl-2-(trifluoromethoxy)phenyl)-N-(1-methylpiperidin-3-yl)pyrazolo[1,5-d][1,2,4]triazin-7-amine], the half-inhibitory concentration (IC50) was in the range of 10 to 100 nM.
Still for that read-out and setting: in the case of `Oc1cc(C(F)(F)F)ccc1-c1nnc(N[C@@H]2CCCOC2)n2cncc12` [Compound I-397] it was 10 to 100 nM; in that of `CN1CCC[C@@H](Nc2nnc(-c3ccc(C(F)(F)F)cc3O)c3nccn23)C1` [Compound I-398, 2-[5-[[(3R)-1-Methyl-3-piperidyl]amino]imidazo[1,2-d][1,2,4]triazin-8-yl]-5-(trifluoromethyl)phenol formic acid salt], above 300 nM.
As for `Oc1cc(C(F)(F)F)ccc1-c1nnc(N[C@@H]2CCC[C@H](O)C2)n2cccc12` [Compound I-399], the IC50 was in the range of 10 to 100 nM.
Still for that read-out and setting: in the case of `CO[C@H]1CCC[C@@H](Nc2nnc(-c3ccc(C(F)(F)F)cc3O)c3cccn23)C1` [Compound I-400] it was 100 to 300 nM; in that of `Oc1cc(C(F)(F)F)ccc1-c1nnc(N[C@@H]2CCCOC2)n2cccc12` [Compound I-401], 100 to 300 nM.
On the same count and under the same terms, in the case of `Oc1cc(Cl)ccc1-c1nnc(N[C@@H]2CCCOC2)n2cccc12` [Compound I-402] it was 10 to 100 nM; in that of `CC(C)(O)CN1CCC[C@@H](Nc2nnc(-c3ccc(Cl)cc3O)c3cccn23)C1` [Compound I-403], 10 to 100 nM; in that of `CC(C)N1CCC[C@@H](Nc2nnc(-c3ccc(Cl)cc3O)c3cccn23)C1` [Compound I-404], below 1 nM.
The same measure, in the same setting: in the case of `Oc1cc(C(F)(F)F)ccc1-c1nnc(N[C@H]2C[C@](O)(C(F)(F)F)C2)n2cccc12` [Compound I-405] it was 100 to 300 nM.
As to `C[C@]1(O)C[C@@H](Nc2nnc(-c3ccc(C(F)(F)F)cc3O)c3cccn23)C1` [Compound I-406], the IC50 is 1 to 10 nM.
Regarding `COc1cc(C#N)ccc1-c1nnc(N[C@@H]2CCCN(C)C2)n2cccc12` [Compound I-407], the IC50 was 10 to 100 nM.
On the same count and under the same terms, in the case of `CN1C[C@H](F)C[C@@H](Nc2nnc(-c3ccc(OC(F)(F)F)cc3O)c3cccn23)C1` [Compound I-409] it was 1 to 10 nM; in that of `CN1C[C@H](F)C[C@@H](Nc2nnc(-c3ccc(C(F)(F)F)cc3O)c3cccn23)C1` [Compound I-410], 1 to 10 nM; in that of `COc1ccc(-c2nnc(N[C@@H]3CCCN(C)C3)n3c(C)ncc23)c(O)c1` [Compound I-411], 10 to 100 nM.
Still for that read-out and setting: with `Oc1cc(C(F)(F)F)ccc1-c1nnc(N[C@@H]2CCCN(CC(F)F)C2)n2cccc12` [Compound I-412] the figure was below 1 nM; with `CN1C[C@H](F)C[C@@H](Nc2nnc(-c3ccc(C(F)(F)F)cc3OC(F)F)c3cccn23)C1` [Compound I-413, 1-[2-(Difluoromethoxy)-4-(trifluoromethyl)phenyl]-N-[(3R,5R)-5-fluoro-1-methyl-3-piperidyl]pyrrolo[1,2-d][1,2,4]triazin-4-amine], 1 to 10 nM; with `CCN1CCC[C@@H](Nc2nnc(-c3c(O)cc(C(F)(F)F)cc3F)c3cccn23)C1` [Compound I-414], below 1 nM.
On the same count and under the same terms, with `OCCN1CCC[C@@H](Nc2nnc(-c3c(O)cc(C(F)(F)F)cc3F)c3cccn23)C1` [Compound I-415] the figure was 1 to 10 nM; with `CN1C[C@H](F)C[C@@H](Nc2nnc(-c3c(O)cc(C(F)(F)F)cc3F)c3cccn23)C1` [Compound I-416], 1 to 10 nM.
With `CC(C)(O)CN1CCC[C@@H](Nc2nnc(-c3c(O)cc(C(F)(F)F)cc3F)c3cccn23)C1` [Compound I-417], the IC50 was in the range of 1 to 10 nM.
Take `Cc1cc(O)c(-c2nnc(N[C@@H]3CCCOC3)n3cccc23)c(F)c1` [Compound I-421]: the IC50 was 1 to 10 nM.
The same measure, in the same setting: in the case of `Cc1cc(O)c(-c2nnc(N[C@@H]3CCC[C@H](O)C3)n3cccc23)c(F)c1` [Compound I-422] it was 1 to 10 nM; in that of `Oc1cc(C2CC2)cc(F)c1-c1nnc(N[C@@H]2CCCOC2)n2cccc12` [Compound I-423], 10 to 100 nM.
The same measure, in the same setting: in the case of `Oc1cc(C2CC2)cc(F)c1-c1nnc(N[C@@H]2CCC[C@H](O)C2)n2cccc12` [Compound I-424] it was 1 to 10 nM; in that of `Cc1ccc(-c2nnc(N[C@@H]3CCCN(C)C3)n3cccc23)c(C(F)F)c1` [Compound I-425, 1-[2-(Difluoromethyl)-4-methyl-phenyl]-N-[(3R)-1-methyl-3-piperidyl]pyrrolo[1,2-d][1,2,4]triazin-4-amine], 10 to 100 nM.
Same read-out and setting: with `CN1CCC[C@@H](Nc2nnc(-c3ccc(C(F)(F)F)cc3C(F)F)c3cccn23)C1` [Compound I-426] the figure was 10 to 100 nM.
In the case of `C[C@]1(O)C[C@@H](Nc2nnc(-c3ccc(C(F)(F)F)cc3C(F)F)c3cccn23)C1` [Compound I-427], the IC50 was 10 to 100 nM.
The same measure, in the same setting: with `Cc1cc(F)c(-c2nnc(N[C@@H]3CCCN(C)C3)n3cccc23)c(OC(F)F)c1` [Compound I-428] the figure was 10 to 100 nM; with `Cc1cc2c(-c3c(O)cc(C4CC4)cc3F)nnc(N[C@@H]3CCCN(C)C3)n2n1` [Compound I-429], below 1 nM.
The same measure, in the same setting: with `Oc1cc(C(F)(F)F)cc(F)c1-c1nnc(N[C@@H]2CCCN(C3CCOCC3)C2)n2cccc12` [Compound I-430] the figure was 1 to 10 nM.
On the same count and under the same terms, with `Cc1cc(C(F)(F)F)cc(O)c1-c1nnc(N[C@@H]2CCCN(C)C2)n2cccc12` [Compound I-431] the figure was below 1 nM; with `CN1CCC[C@@H](Nc2nnc(-c3c(O)cc(Cl)cc3F)c3cccn23)C1` [Compound I-432], below 1 nM; with `CCN1CCC[C@@H](Nc2nnc(-c3c(O)cc(Cl)cc3F)c3cccn23)C1` [Compound I-433], below 1 nM.
`C[C@]1(O)C[C@@H](Nc2nnc(-c3c(O)cc(Cl)cc3F)c3cccn23)C1` [Compound I-434]: the IC50 fell in the range of 1 to 10 nM.
Same read-out and setting: with `Oc1cc(Cl)ccc1-c1nnc(N[C@@H]2CCCNC2)n2cncc12` [Compound I-435] the figure was 1 to 10 nM; with `OCCN1CCC[C@@H](Nc2nnc(-c3ccc(Cl)cc3O)c3cncn23)C1` [Compound I-436], 1 to 10 nM.
On the same count and under the same terms, in the case of `C[C@@H](O)CNc1nnc(-c2ccc(OC(F)(F)F)cc2O)c2cccn12` [Compound I-437] it was 10 to 100 nM; in that of `CC(C)(O)CNc1nnc(-c2ccc(OC(F)(F)F)cc2O)c2cccn12` [Compound I-438], 100 to 300 nM; in that of `CN1C[C@H](F)C[C@@H](Nc2nnc(-c3ccc(C(F)(F)F)cc3OC(F)F)c3c(F)ccn23)C1` [Compound I-439], 1 to 10 nM.
Same read-out and setting: in the case of `C[C@@H](O)CNc1nnc(-c2ccc(C(F)(F)F)cc2OC(F)F)c2c(F)ccn12` [Compound I-440] it was 10 to 100 nM; in that of `CN1CCC[C@@H](Nc2nnc(-c3ccc(OC(F)(F)F)cc3O)c3c(F)ccn23)C1` [Compound I-441], 1 to 10 nM; in that of `CCN1CCC[C@@H](Nc2nnc(-c3ccc(Cl)cc3O)c3cncn23)C1` [Compound I-442], below 1 nM.
Regarding `CN1CCC[C@@H](Nc2nnc(-c3ccc(Cl)cc3C(F)F)c3cccn23)C1` [Compound I-443, 1-[4-Chloro-2-(difluoromethyl)phenyl]-N-[(3R)-1-methyl-3-piperidyl]pyrrolo[1,2-d][1,2,4]triazin-4-amine], the IC50 is 1 to 10 nM.
Still for that read-out and setting: in the case of `Cc1cc(O)c(-c2nnc(N[C@@H]3C[C@@H](F)CN(C)C3)n3cccc23)c(F)c1` [Compound I-444] it was below 1 nM; in that of `CN1C[C@H](F)C[C@@H](Nc2nnc(-c3c(O)cc(C4CC4)cc3F)c3cccn23)C1` [Compound I-445, 5-Cyclopropyl-3-fluoro-2-[4-[[(3R,5R)-5-fluoro-1-methyl-3-piperidyl]amino]-pyrrolo[1,2-d][1,2,4]triazin-1-yl]phenol], 1 to 10 nM.
The same measure, in the same setting: with `CN1CCC[C@@H](Nc2nnc(-c3ccc(C4CC4)cc3C(F)F)c3cccn23)C1` [Compound I-446, 1-[4-Cyclopropyl-2-(difluoromethyl)phenyl]-N-[(3R)-1-methyl-3-piperidyl]pyrrolo-[1,2-d][1,2,4]triazin-4-amine] the figure was 1 to 10 nM; with `Oc1cc(C(F)(F)F)cc(F)c1-c1nnc(N[C@@H]2CCCN(C3CCOC3)C2)n2cccc12` (stereo partly shown) [Compound I-447], 1 to 10 nM; with `Oc1cc(C(F)(F)F)ccc1-c1nnc(N[C@@H]2CC[C@H](O)C2)n2cccc12` [Compound I-448], 10 to 100 nM.
Still for that read-out and setting: with `Oc1cc(C(F)(F)F)ccc1-c1nnc(N[C@@H]2CC[C@@H](O)C2)n2cccc12` [Compound I-449] the figure was 10 to 100 nM; with `CC1(O)CCCC(Nc2nnc(-c3ccc(C(F)(F)F)cc3O)c3cccn23)C1` (stereo not shown) [Compound I-450], 10 to 100 nM.
Consider `COc1cc(Br)ccc1-c1nnc(N[C@@H]2CCCN(C)C2)n2nccc12` [Compound I-451], for which the IC50 lay within 10 to 100 nM.
On the same count and under the same terms, in the case of `CN1CCC[C@@H](Nc2nnc(-c3ccc(Br)cc3O)c3ccnn23)C1` [Compound I-452] it was 1 to 10 nM.

The same assay, now with this note: THP-1 cells, 100 ng/mL PMA 24 h, compound 20 h, 2.5 μM Nigericin 3 h; read-out: IC50 IL-1β Inhibition.
For `Cc1cc2c(-c3ccc(C4CC4)cc3OC(F)(F)F)nnc(N[C@@H]3CCCN(C)C3)n2n1` [Compound I-418], the concentration for half-maximal inhibition (IC50) fell in the range of 1 to 10 nM.
Same read-out and setting: with `Cc1cc2c(-c3ccc(C4CC4)cc3OC(F)(F)F)nnc(N[C@@H]3CCCN(C)C3)n2n1` [Compound I-419, (R)-4-(4-Cyclopropyl-2-(trifluoromethoxy)phenyl)-2-methyl-N-(1-methylpiperidin-3-yl)pyrazolo[1,5-d][1,2,4]triazin-7-amine] the figure was 10 to 100 nM.
